Columns and labels:
[1] = Metabolic stability in rat liver microsomes assessed as compound remaining at […] incubated for 30 mins by LC/MS/MS analysis; type: ADME, Microsome; conditions: read-out: Stabilty
[2] = Metabolic stability in human liver microsomes assessed as compound remaining at […] incubated for 30 mins by LC/MS/MS analysis; type: ADME, Microsome; conditions: read-out: Stabilty
Hepatitis B virus [3] = experiment: Antiviral activity against Human hepatitis B virus in Huh-7 cells assessed as reduction in intracellular viral DNA level incubated for 36 hrs by qPCR analysis; type: functional, organism-based; conditions: Huh-7, 36 h
Hepatitis B virus [4] = experiment: Inhibition of HBV recombinant Cp149 expressed in Escherichia coli BL21 (DE3) assessed as inhibition of capsid assembly at 10 uM incubated for 1 hr by immune blotting analysis relative to control
[5] = Metabolic stability in mouse liver microsomes assessed as compound remaining at […] incubated for 30 mins by LC/MS/MS analysis; type: ADME, Microsome; conditions: read-out: Stabilty
Hepatitis B virus [6] = experiment: Inhibition of HBV recombinant Cp149 expressed in Escherichia coli BL21 (DE3) assessed as inhibition of capsid assembly at 0.1 uM incubated for 1 hr by immune blotting analysis relative to control
Hepatitis B virus [7] = experiment: Inhibition of HBV recombinant Cp149 expressed in Escherichia coli BL21 (DE3) assessed as inhibition of capsid assembly at 1 uM incubated for 1 hr by immune blotting analysis relative to control
[8] = Permeability of the compound at pH 7.4 by PAMPA; type: ADME
CYP1A2 = target: T1, CYP1A2 (Homo sapiens, UniProt P05177); experiment: Inhibition of human recombinant CYP1A2 using alpha-naphthoflavone […] at 10 uM by fluorometric assay; type: ADME
T1 sequence (P05177 whole entry): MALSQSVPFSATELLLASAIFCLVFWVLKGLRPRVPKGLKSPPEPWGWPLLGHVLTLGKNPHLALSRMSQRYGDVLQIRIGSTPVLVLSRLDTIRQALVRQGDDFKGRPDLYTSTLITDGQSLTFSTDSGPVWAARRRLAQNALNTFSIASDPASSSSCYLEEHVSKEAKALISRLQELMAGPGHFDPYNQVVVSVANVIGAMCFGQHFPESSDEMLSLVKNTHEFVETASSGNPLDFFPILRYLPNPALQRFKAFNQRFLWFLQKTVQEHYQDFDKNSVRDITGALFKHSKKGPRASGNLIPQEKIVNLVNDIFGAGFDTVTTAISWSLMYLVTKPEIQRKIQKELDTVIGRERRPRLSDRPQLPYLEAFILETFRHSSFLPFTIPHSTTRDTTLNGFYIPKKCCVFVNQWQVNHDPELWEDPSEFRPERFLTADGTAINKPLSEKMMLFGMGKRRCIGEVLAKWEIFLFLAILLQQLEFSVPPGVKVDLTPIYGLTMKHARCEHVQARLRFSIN

CYP2C19 = CYP2C19 (Homo sapiens, UniProt P33261); experiment: Inhibition of human recombinant CYP2C19 using amitriptyline […] at 10 uM by fluorometric assay; type: ADME
Sequence of CYP2C19 (P33261 whole entry): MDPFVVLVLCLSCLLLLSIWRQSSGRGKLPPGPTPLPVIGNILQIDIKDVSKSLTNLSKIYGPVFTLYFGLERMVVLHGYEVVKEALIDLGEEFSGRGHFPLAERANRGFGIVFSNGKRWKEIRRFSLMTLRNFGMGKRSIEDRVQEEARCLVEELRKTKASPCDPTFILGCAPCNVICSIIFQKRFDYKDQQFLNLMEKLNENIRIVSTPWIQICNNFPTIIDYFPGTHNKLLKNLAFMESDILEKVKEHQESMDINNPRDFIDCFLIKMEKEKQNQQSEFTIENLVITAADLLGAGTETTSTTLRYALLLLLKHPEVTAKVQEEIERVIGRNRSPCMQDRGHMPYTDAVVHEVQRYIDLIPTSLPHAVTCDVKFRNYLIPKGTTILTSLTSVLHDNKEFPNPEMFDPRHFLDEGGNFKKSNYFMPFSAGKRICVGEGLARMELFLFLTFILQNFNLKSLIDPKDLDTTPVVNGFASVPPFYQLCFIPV

CYP3A4 = CYP3A4 (Homo sapiens, UniProt P08684); experiment: Inhibition of human recombinant CYP3A4 using ketoconazole […] at 10 uM by fluorometric assay; type: ADME
Sequence of CYP3A4 (P08684 whole entry): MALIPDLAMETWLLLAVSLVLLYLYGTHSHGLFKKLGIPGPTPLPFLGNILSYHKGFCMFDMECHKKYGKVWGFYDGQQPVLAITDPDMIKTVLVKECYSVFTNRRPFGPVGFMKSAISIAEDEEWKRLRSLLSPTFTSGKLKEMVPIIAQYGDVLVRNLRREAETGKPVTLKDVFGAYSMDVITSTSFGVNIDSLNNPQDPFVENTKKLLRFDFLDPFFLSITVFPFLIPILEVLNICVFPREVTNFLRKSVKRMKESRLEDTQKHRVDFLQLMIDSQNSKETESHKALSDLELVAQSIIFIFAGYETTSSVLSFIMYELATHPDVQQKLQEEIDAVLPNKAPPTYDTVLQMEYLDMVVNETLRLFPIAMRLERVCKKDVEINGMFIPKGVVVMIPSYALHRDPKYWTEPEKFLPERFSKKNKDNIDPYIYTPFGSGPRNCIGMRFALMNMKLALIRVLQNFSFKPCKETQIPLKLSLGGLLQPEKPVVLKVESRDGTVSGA

CYP2C9 = CYP2C9 (Homo sapiens, UniProt P11712); experiment: Inhibition of human recombinant CYP2C9 using sulfaphenazole […] at 10 uM by fluorometric assay; type: ADME
Sequence of CYP2C9 (P11712 whole entry): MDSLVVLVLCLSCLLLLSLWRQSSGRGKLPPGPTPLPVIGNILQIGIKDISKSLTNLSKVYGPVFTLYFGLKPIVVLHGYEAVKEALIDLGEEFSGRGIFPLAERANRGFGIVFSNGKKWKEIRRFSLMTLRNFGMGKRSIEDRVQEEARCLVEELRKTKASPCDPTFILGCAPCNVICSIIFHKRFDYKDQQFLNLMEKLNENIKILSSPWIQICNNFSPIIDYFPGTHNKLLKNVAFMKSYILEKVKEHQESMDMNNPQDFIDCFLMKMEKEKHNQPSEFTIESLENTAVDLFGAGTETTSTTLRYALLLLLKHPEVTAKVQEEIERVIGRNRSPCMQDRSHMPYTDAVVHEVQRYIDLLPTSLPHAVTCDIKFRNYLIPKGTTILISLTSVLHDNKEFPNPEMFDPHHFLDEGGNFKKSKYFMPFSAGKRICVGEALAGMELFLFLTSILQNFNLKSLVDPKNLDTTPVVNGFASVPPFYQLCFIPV

CYP2D6 = CYP2D6 (Homo sapiens, UniProt P10635); experiment: Inhibition of human recombinant CYP2D6 using quinidine […] at 10 uM by fluorometric assay; type: ADME
Sequence of CYP2D6 (P10635 whole entry): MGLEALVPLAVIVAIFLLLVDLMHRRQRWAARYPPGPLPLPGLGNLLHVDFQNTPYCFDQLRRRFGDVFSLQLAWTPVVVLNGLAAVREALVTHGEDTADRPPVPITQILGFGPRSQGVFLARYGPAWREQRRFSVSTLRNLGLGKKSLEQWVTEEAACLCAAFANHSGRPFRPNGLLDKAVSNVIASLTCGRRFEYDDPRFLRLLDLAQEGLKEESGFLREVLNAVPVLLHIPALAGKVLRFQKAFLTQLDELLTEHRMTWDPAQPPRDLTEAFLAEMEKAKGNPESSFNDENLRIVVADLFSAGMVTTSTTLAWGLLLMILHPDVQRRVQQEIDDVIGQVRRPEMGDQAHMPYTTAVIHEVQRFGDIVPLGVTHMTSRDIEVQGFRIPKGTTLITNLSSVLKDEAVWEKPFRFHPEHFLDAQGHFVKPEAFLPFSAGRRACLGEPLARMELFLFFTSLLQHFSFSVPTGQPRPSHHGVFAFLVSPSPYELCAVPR

hERG (KCNH2) = hERG (KCNH2) (Homo sapiens, UniProt Q12809); experiment: Inhibition of human ERG at 40 uM incubated for 2 to 3 hrs by ligand binding assay
Sequence of hERG (KCNH2) (Q12809 whole entry): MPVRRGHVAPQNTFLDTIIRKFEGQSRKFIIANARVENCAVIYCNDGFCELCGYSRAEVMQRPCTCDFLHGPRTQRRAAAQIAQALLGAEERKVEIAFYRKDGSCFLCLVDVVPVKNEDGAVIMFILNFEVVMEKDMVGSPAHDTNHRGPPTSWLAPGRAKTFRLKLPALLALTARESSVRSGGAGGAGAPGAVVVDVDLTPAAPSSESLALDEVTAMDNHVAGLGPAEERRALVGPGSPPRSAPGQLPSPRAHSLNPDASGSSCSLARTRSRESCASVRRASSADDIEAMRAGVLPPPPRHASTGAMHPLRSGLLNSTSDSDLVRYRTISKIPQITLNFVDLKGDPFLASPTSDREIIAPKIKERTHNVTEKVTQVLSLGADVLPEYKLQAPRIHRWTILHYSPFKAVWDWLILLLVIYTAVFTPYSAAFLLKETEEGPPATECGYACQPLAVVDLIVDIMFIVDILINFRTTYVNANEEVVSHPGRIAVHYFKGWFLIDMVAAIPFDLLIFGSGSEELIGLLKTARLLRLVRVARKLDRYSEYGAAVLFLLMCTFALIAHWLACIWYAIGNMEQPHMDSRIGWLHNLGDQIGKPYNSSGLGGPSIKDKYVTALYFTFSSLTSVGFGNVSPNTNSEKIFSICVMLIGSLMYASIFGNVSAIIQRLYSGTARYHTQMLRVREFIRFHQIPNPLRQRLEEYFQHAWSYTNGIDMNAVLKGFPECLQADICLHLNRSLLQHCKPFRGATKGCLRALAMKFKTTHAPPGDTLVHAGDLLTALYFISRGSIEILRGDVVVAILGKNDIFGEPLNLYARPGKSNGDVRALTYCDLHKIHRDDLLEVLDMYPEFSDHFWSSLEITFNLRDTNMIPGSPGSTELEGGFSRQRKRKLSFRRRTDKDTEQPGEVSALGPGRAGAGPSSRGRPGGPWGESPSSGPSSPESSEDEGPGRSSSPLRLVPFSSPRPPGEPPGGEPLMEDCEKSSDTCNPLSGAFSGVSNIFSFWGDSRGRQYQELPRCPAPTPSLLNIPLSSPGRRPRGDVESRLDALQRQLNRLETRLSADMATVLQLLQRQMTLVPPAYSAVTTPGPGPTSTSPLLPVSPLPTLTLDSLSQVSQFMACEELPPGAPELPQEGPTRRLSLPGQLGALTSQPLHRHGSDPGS

[9] = Mutagenicity in Salmonella typhimurium in presence of S9 fraction by Ames test; type: toxicity, subcellular; conditions: salmonella enterica subsp. enterica serovar typhimurium

| Structure (SMILES) | IC50 (Hepatitis B virus [3]) [nM] | inhibition (Hepatitis B virus [4]) [%] | inhibition (Hepatitis B virus [6]) [%] | inhibition (Hepatitis B virus [7]) [%] | also measured |
| --- | --- | --- | --- | --- | --- |
| CS(=O)(=O)c1nc(Nc2cc(F)c(F)c(F)c2)cc(Nc2cc(F)c(F)c(F)c2)n1 | 1020 | 69 | – | – | remaining at 0.5 h [1]: 99.9%; remaining at 0.5 h [2]: 99.9%; remaining at 0.5 h [5]: 99.9% |
| CSc1nc(NCCNC(=O)c2cccnc2)cc(Nc2ccc(N3CCOCC3)cc2)n1 | > 10000 | 43 | – | – | – |
| CS(=O)(=O)c1nc(Nc2ccc(F)c(Cl)c2)cc(N2CCNCC2)n1 [listing 1 of 2 here] | – | – | 47 | 90 | – |
| CS(=O)(=O)c1nc(Nc2ccc(F)c(Cl)c2)cc(NC2CCNCC2)n1 | 199 | – | 59 | 95 | log(permeability) [8]: -5.46; remaining at 0.5 h [1]: 85.1%; remaining at 0.5 h [2]: 92.9%; remaining at 0.5 h [5]: 93.9% |
| COc1ncccc1C(=O)NCCNc1cc(Nc2ccccc2)nc([S+](C)[O-])n1 (stereo not given) | 484 | – | 14 | 83 | – |
| CS(=O)(=O)c1nc(Nc2ccc(F)c(Br)c2)cc(NC2CCC(N)CC2)n1 (stereo not given) | 480 | – | 10 | 98 | – |
| CS(=O)(=O)c1nc(Nc2ccc(F)c(Br)c2)cc(NC2CCNCC2)n1 | 536 | – | 7 | 97 | – |
| COC(=O)C1=C(C)NC(c2ncc(F)cc2F)=N[C@H]1c1ccc(F)cc1Cl | 205 | 37 | – | – | – |
| O=C1CC2(CCCC2)CC(=O)N1CCCCN1CCN(c2ncccn2)CC1 [BUSPIRONE] | – | – | – | – | remaining at 0.5 h [1]: 0.528%; remaining at 0.5 h [2]: 2.44%; remaining at 0.5 h [5]: 0.906% |
| CSc1nc(NCCNC(=O)c2cccc(Cl)n2)cc(Nc2ccc(N3CCOCC3)cc2)n1 | – | 0 | – | – | – |
| COc1ncccc1C(=O)NCCNc1cc(Nc2ccc(F)cc2)nc([S+](C)[O-])n1 (stereo not given) | 210 | – | 32 | 83 | – |
| COc1ncccc1C(=O)NCCNc1cc(Nc2ccc(F)c(F)c2)nc([S+](C)[O-])n1 (stereo not given) | > 10000 | 38 | – | – | – |
| COc1ncccc1C(=O)NCCNc1cc(Nc2ccc(N3CCOCC3)cc2)nc([S+](C)[O-])n1 (stereo not given) | 402 | 95 | – | – | inhibition at 10 µM (CYP1A2): 18.3%; inhibition at 10 µM (CYP2C19): 40.7%; log(permeability) [8]: -5.47; remaining at 0.5 h [1]: 77.1%; inhibition at 10 µM (CYP3A4): 51.7%; inhibition at 10 µM (CYP2C9): 42.9%; remaining at 0.5 h [2]: 93.4%; remaining at 0.5 h [5]: 80.2% |
| CS(=O)(=O)c1nc(Nc2cc(F)c(F)c(F)c2)cc(NC2CCC(N)CC2)n1 (stereo not given) | 292 | – | 29 | 96 | – |
| CS(=O)(=O)c1nc(Nc2ccc(F)cc2)cc(Nc2ccc(F)cc2)n1 | 6400 | 49 | – | – | remaining at 0.5 h [1]: 74.4%; remaining at 0.5 h [2]: 42.8%; remaining at 0.5 h [5]: 37.7% |
| CSc1nc(NCCNC(=O)c2cccnc2F)cc(Nc2ccc(N3CCOCC3)cc2)n1 | – | 0 | – | – | – |
| C[S+]([O-])c1nc(NCCNC(=O)c2cccnc2)cc(Nc2ccc(N3CCOCC3)cc2)n1 (stereo not given) | > 10000 | 13 | – | – | – |
| COc1ncccc1C(=O)N1CCN(c2cc(Nc3ccc(N4CCOCC4)cc3)nc([S+](C)[O-])n2)CC1 (stereo not given) | > 10000 | 33 | – | – | – |

| Structure (SMILES) | IC50 (Hepatitis B virus [3]) [nM] | inhibition (Hepatitis B virus [4]) [%] | inhibition (Hepatitis B virus [6]) [%] | inhibition (Hepatitis B virus [7]) [%] | also measured |
| --- | --- | --- | --- | --- | --- |
| COc1ncccc1C(=O)NCCNc1cc(Nc2ccc(Cl)cc2)nc([S+](C)[O-])n1 (stereo not given) | 299 | – | 27 | 80 | – |
| COc1ncccc1C(=O)NCCNc1cc(Nc2ccc(Br)cc2)nc([S+](C)[O-])n1 (stereo not given) | 177 | – | 27 | 82 | – |
| CS(=O)(=O)c1nc(Nc2ccc(F)c(Br)c2)cc(N2CCNCC2)n1 | 547 | – | 13 | 98 | – |
| COc1ncccc1C(=O)NCCNc1cc(Nc2ccc(I)cc2)nc([S+](C)[O-])n1 (stereo not given) | > 10000 | 37 | – | – | – |
| COc1ncccc1C(=O)N1CCN(c2cc(Nc3ccc(N4CCOCC4)cc3)nc(SC)n2)CC1 | > 10000 | 31 | – | – | – |
| CS(=O)(=O)c1nc(Nc2ccc(F)c(Cl)c2)cc(Nc2ccc(F)c(Cl)c2)n1 | 587 | 57 | – | – | remaining at 0.5 h [1]: 99.9%; remaining at 0.5 h [2]: 99.9%; remaining at 0.5 h [5]: 92.9% |
| COc1ncccc1C(=O)NCCNc1cc(Nc2ccc(N3CCOCC3)cc2)nc(S(C)(=O)=O)n1 | 198 | – | 49 | 86 | – |
| COc1cncc(C(=O)NCCNc2cc(Nc3ccc(N4CCOCC4)cc3)nc([S+](C)[O-])n2)c1 (stereo not given) | > 10000 | 78 | 43 | 83 | – |
| CS(=O)(=O)c1nc(Nc2ccc(F)c(Cl)c2)cc(N2CCNCC2)n1 [listing 2 of 2 here] | 189 | – | – | – | inhibition at 10 µM (CYP1A2): 57.4%; inhibition at 10 µM (CYP2C19): 41.2%; log(permeability) [8]: -5.37; remaining at 0.5 h [1]: > 99%; inhibition at 10 µM (CYP3A4): 60.2%; inhibition at 10 µM (CYP2C9): 64.8%; remaining at 0.5 h [2]: > 99%; inhibition at 10 µM (CYP2D6): 45.2%; inhibition at 40 µM (hERG (KCNH2)): 14%; remaining at 0.5 h [5]: > 99%; Activity [9]: Non-Toxic |
| COc1ncccc1C(=O)NCCNc1cc(Nc2ccc(N3CCOCC3)cc2)nc(SC)n1 | > 10000 | 23 | – | – | remaining at 0.5 h [1]: 49%; remaining at 0.5 h [2]: 58.8%; remaining at 0.5 h [5]: 17.8% |
| CS(=O)(=O)c1nc(Nc2cc(F)c(F)c(F)c2)cc(N2CCNCC2)n1 | 203 | – | 39 | 92 | inhibition at 10 µM (CYP1A2): 23.6%; inhibition at 10 µM (CYP2C19): 93.4%; remaining at 0.5 h [1]: 87.9%; inhibition at 10 µM (CYP3A4): 52.1%; inhibition at 10 µM (CYP2C9): 85.2%; remaining at 0.5 h [2]: 99.9%; inhibition at 10 µM (CYP2D6): 5.76%; inhibition at 40 µM (hERG (KCNH2)): 48.7%; remaining at 0.5 h [5]: 99.8%; Activity [9]: Non-Toxic |
| CSc1nc(NCCNC(=O)c2ccc(Cl)nc2Cl)cc(Nc2ccc(N3CCOCC3)cc2)n1 | – | 5 | – | – | – |
| CSc1nc(NCCNC(=O)c2ncc(F)cc2F)cc(Nc2ccc(N3CCOCC3)cc2)n1 | – | 1 | – | – | – |
| COc1ncccc1C(=O)NCCNc1cc(Nc2ccc(F)cc2Cl)nc([S+](C)[O-])n1 (stereo not given) | > 10000 | 43 | – | – | – |
| CSc1nc(NCCNC(=O)c2cccnc2Cl)cc(Nc2ccc(N3CCOCC3)cc2)n1 | – | 2 | – | – | – |
| CCOC(=O)C1=C(CN2CCOCC2)NC(c2nccs2)=N[C@H]1c1ccc(F)cc1Br | 188 | – | 49 | 93 | – |
| CS(=O)(=O)c1nc(Nc2cc(F)c(F)c(F)c2)cc(NC2CCNCC2)n1 | 190 | – | 16 | 90 | log(permeability) [8]: <= -6; remaining at 0.5 h [1]: 98.2%; remaining at 0.5 h [5]: 98.6% |
| COc1cncc(C(=O)NCCNc2cc(Nc3ccc(N4CCOCC4)cc3)nc(SC)n2)c1 | 8420 | 37 | – | – | – |

Source: ChEMBL document CHEMBL4825668, “Discovery of Novel Pyrimidine-Based Capsid Assembly Modulators as Potent Anti-HBV Agents” (J Med Chem, 2021)
